According to PubChem BioAssay AID2060490 (Molecular Pharmacology Branch, DTP, NCI, 2025):

System: 885512-296-R-J2-PDC complex spheroid viability
Assay: Anticancer human tumor 885512-296-R-J2-PDC patient-derived breast carcinoma cell line growth inhibition [GQUAD]
Settings: for IC50: curve of first compound; for viability, T/C: stronger effect = lower value
Procedure, shortened: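 Tumor cells were grown as complex spheroids with HUVEC endothelial cells and mesenchymal stem cells as stroma. G-quadruplex stabilizers were combined with targeted agents over half-log dilutions from near the clinical Cmax, or from 10 microM.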

[1] = second compound 0.0316 µM, first compound 0.0316 µM
[2] = second compound 0.0316 µM, first compound 0.1 µM
[3] = second compound 0.0316 µM, first compound 0.316 µM
[4] = second compound 0.0316 µM, first compound 1 µM
[5] = second compound 0.0316 µM, first compound 3.16 µM
[6] = second compound 0.0316 µM, first compound 10 µM
[7] = second compound 0.1 µM, first compound 0.0316 µM
[8] = second compound 0.1 µM, first compound 0.1 µM
[9] = second compound 0.1 µM, first compound 0.316 µM
[10] = second compound 0.1 µM, first compound 1 µM
[11] = second compound 0.1 µM, first compound 3.16 µM
[12] = second compound 0.1 µM, first compound 10 µM
[13] = second compound 0.316 µM, first compound 0.0316 µM
[14] = second compound 0.316 µM, first compound 0.1 µM
[15] = second compound 0.316 µM, first compound 0.316 µM
[16] = second compound 0.316 µM, first compound 1 µM
[17] = second compound 0.316 µM, first compound 3.16 µM
[18] = second compound 0.316 µM, first compound 10 µM
[19] = second compound 1 µM, first compound 0.0316 µM
[20] = second compound 1 µM, first compound 0.1 µM
[21] = second compound 1 µM, first compound 0.316 µM
[22] = second compound 1 µM, first compound 1 µM
[23] = second compound 1 µM, first compound 3.16 µM
[24] = second compound 1 µM, first compound 10 µM
[25] = second compound 3.16 µM, first compound 0.0316 µM
[26] = second compound 3.16 µM, first compound 0.1 µM
[27] = second compound 3.16 µM, first compound 0.316 µM
[28] = second compound 3.16 µM, first compound 1 µM
[29] = second compound 3.16 µM, first compound 3.16 µM
[30] = second compound 3.16 µM, first compound 10 µM
[31] = second compound 10 µM, first compound 0.0316 µM
[32] = second compound 10 µM, first compound 0.1 µM
[33] = second compound 10 µM, first compound 0.316 µM
[34] = second compound 10 µM, first compound 1 µM
[35] = second compound 10 µM, first compound 3.16 µM
[36] = second compound 10 µM, first compound 10 µM
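Note: spheroids exposed to the compounds for one week.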
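Throughout, for viability, T/C: percent of tumor spheroid viability relative to DMSO vehicle control wells.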

C#Cc1c(F)ccc2cc(O)cc(-c3ncc4c(N5CC6CCC(C5)N6)nc(OCC56CCCN5CC(F)C6)nc4c3F)c12 (stereo not given) + Cc1cnc(CNC(=O)c2c(=O)c3ccc(N4CCCN(C)CC4)nc3n3c2sc2ccccc23)cn1
IC50 (second compound 0.0316 µM): > 10000 nM
IC50 (second compound 0.1 µM): > 10000 nM
IC50 (second compound 0.316 µM): < 31.6 nM
IC50 (second compound 1 µM): < 31.6 nM
IC50 (second compound 3.16 µM): < 31.6 nM
IC50 (second compound 10 µM): < 31.6 nM
viability, T/C [1]: 81.9%
viability, T/C [2]: 80.5%
viability, T/C [3]: 85.2%
viability, T/C [4]: 83.9%
viability, T/C [5]: 96.2%
viability, T/C [6]: 83.5%
viability, T/C [7]: 60.2%
viability, T/C [8]: 60.3%
viability, T/C [9]: 69.4%
viability, T/C [10]: 59.8%
viability, T/C [11]: 66.5%
viability, T/C [12]: 56.5%
viability, T/C [13]: 32.4%
viability, T/C [14]: 26.6%
viability, T/C [15]: 31.7%
viability, T/C [16]: 34.7%
viability, T/C [17]: 22.9%
viability, T/C [18]: 31.9%
viability, T/C [19]: 24.9%
viability, T/C [20]: 23.8%
viability, T/C [21]: 24.6%
viability, T/C [22]: 28.2%
viability, T/C [23]: 29.4%
viability, T/C [24]: 23.9%
viability, T/C [25]: 24.8%
viability, T/C [26]: 32.1%
viability, T/C [27]: 26.4%
viability, T/C [28]: 28.7%
viability, T/C [29]: 29.1%
viability, T/C [30]: 9.52%
viability, T/C [31]: 0.12%
viability, T/C [32]: 0.16%
viability, T/C [33]: 0.18%
viability, T/C [34]: 0.13%
viability, T/C [35]: 0.19%
viability, T/C [36]: 0.16%

C=CCn1c(=O)c2cnc(Nc3ccc(N4CCN(C)CC4)cc3)nc2n1-c1cccc(C(C)(C)O)n1 + Cc1cnc(CNC(=O)c2c(=O)c3ccc(N4CCCN(C)CC4)nc3n3c2sc2ccccc23)cn1
IC50 (second compound 0.0316 µM): 198 nM
IC50 (second compound 0.1 µM): 53.1 nM
IC50 (second compound 0.316 µM): < 31.6 nM
IC50 (second compound 1 µM): < 31.6 nM
IC50 (second compound 3.16 µM): < 31.6 nM
IC50 (second compound 10 µM): < 31.6 nM
viability, T/C [1]: 91.2%
viability, T/C [2]: 80.3%
viability, T/C [3]: 29.2%
viability, T/C [4]: 7.28%
viability, T/C [5]: 2.83%
viability, T/C [6]: 2.53%
viability, T/C [7]: 58.3%
viability, T/C [8]: 39.6%
viability, T/C [9]: 19.6%
viability, T/C [10]: 6.62%
viability, T/C [11]: 2.73%
viability, T/C [12]: 3.18%
viability, T/C [13]: 21.2%
viability, T/C [14]: 16.4%
viability, T/C [15]: 12%
viability, T/C [16]: 7.07%
viability, T/C [17]: 3%
viability, T/C [18]: 3.66%
viability, T/C [19]: 22.6%
viability, T/C [20]: 16.2%
viability, T/C [21]: 10.8%
viability, T/C [22]: 4.65%
viability, T/C [23]: 2.76%
viability, T/C [24]: 2.44%
viability, T/C [25]: 21.4%
viability, T/C [26]: 12.4%
viability, T/C [27]: 6.15%
viability, T/C [28]: 0.28%
viability, T/C [29]: 0.16%
viability, T/C [30]: 0.17%
viability, T/C [31]: 0.12%
viability, T/C [32]: 0.16%
viability, T/C [33]: 0.16%
viability, T/C [34]: 0.15%
viability, T/C [35]: 0.81%
viability, T/C [36]: 0.81%

CC(C)(O)C1CCC(Nc2ccc3ncc(-c4cccc(C(F)(F)F)c4)n3n2)CC1 (stereo not given) + Cc1cnc(CNC(=O)c2c(=O)c3ccc(N4CCCN(C)CC4)nc3n3c2sc2ccccc23)cn1
IC50 (second compound 0.0316 µM): 1670 nM
IC50 (second compound 0.1 µM): 1350 nM
IC50 (second compound 0.316 µM): < 31.6 nM
IC50 (second compound 1 µM): < 31.6 nM
IC50 (second compound 3.16 µM): < 31.6 nM
IC50 (second compound 10 µM): < 31.6 nM
viability, T/C [1]: 91.5%
viability, T/C [2]: 70.3%
viability, T/C [3]: 85.9%
viability, T/C [4]: 69.8%
viability, T/C [5]: 25.8%
viability, T/C [6]: 25.2%
viability, T/C [7]: 63.4%
viability, T/C [8]: 55.3%
viability, T/C [9]: 52.6%
viability, T/C [10]: 57.6%
viability, T/C [11]: 29.6%
viability, T/C [12]: 24.7%
viability, T/C [13]: 24.4%
viability, T/C [14]: 23.7%
viability, T/C [15]: 25.7%
viability, T/C [16]: 27.1%
viability, T/C [17]: 28.8%
viability, T/C [18]: 20.6%
viability, T/C [19]: 22.9%
viability, T/C [20]: 23.8%
viability, T/C [21]: 29.4%
viability, T/C [22]: 29.9%
viability, T/C [23]: 25.6%
viability, T/C [24]: 11.9%
viability, T/C [25]: 27.7%
viability, T/C [26]: 28%
viability, T/C [27]: 24.5%
viability, T/C [28]: 23.1%
viability, T/C [29]: 0.1%
viability, T/C [30]: 0.36%
viability, T/C [31]: 0.06%
viability, T/C [32]: 0.14%
viability, T/C [33]: 0.19%
viability, T/C [34]: 0.18%
viability, T/C [35]: 0.19%
viability, T/C [36]: 0.2%

CCCS(=O)(=O)Nc1ccc(F)c(C(=O)c2c[nH]c3ncc(-c4ccc(Cl)cc4)cc23)c1F + Cc1cnc(CNC(=O)c2c(=O)c3ccc(N4CCCN(C)CC4)nc3n3c2sc2ccccc23)cn1
IC50 (second compound 0.0316 µM): > 10000 nM
IC50 (second compound 0.1 µM): > 10000 nM
IC50 (second compound 0.316 µM): < 31.6 nM
IC50 (second compound 1 µM): < 31.6 nM
IC50 (second compound 3.16 µM): < 31.6 nM
IC50 (second compound 10 µM): < 31.6 nM
viability, T/C [1]: 97.5%
viability, T/C [2]: 93.9%
viability, T/C [3]: 97.1%
viability, T/C [4]: 91.7%
viability, T/C [5]: 102%
viability, T/C [6]: 58.8%
viability, T/C [7]: 65.8%
viability, T/C [8]: 61%
viability, T/C [9]: 64.3%
viability, T/C [10]: 67.6%
viability, T/C [11]: 71.2%
viability, T/C [12]: 41.5%
viability, T/C [13]: 30.3%
viability, T/C [14]: 24.9%
viability, T/C [15]: 22.9%
viability, T/C [16]: 34.2%
viability, T/C [17]: 45.6%
viability, T/C [18]: 25.4%
viability, T/C [19]: 19.2%
viability, T/C [20]: 26%
viability, T/C [21]: 26.4%
viability, T/C [22]: 33.6%
viability, T/C [23]: 36%
viability, T/C [24]: 22.7%
viability, T/C [25]: 20.9%
viability, T/C [26]: 29.3%
viability, T/C [27]: 26.5%
viability, T/C [28]: 25.8%
viability, T/C [29]: 24.5%
viability, T/C [30]: 0.29%
viability, T/C [31]: 0.15%
viability, T/C [32]: 0.16%
viability, T/C [33]: 0.18%
viability, T/C [34]: 0.17%
viability, T/C [35]: 0.15%
viability, T/C [36]: 0.18%

COc1ncnc(C2CC2)c1-c1ncc2cnn(Cc3ccc(-c4nc(C(F)(F)F)cn4C(C)C)cc3)c2n1 + Cc1cnc(CNC(=O)c2c(=O)c3ccc(N4CCCN(C)CC4)nc3n3c2sc2ccccc23)cn1
IC50 (second compound 0.0316 µM): > 10000 nM
IC50 (second compound 0.1 µM): > 10000 nM
IC50 (second compound 0.316 µM): < 31.6 nM
IC50 (second compound 1 µM): < 31.6 nM
IC50 (second compound 3.16 µM): < 31.6 nM
IC50 (second compound 10 µM): < 31.6 nM
viability, T/C [1]: 94.7%
viability, T/C [2]: 76%
viability, T/C [3]: 76.9%
viability, T/C [4]: 78.2%
viability, T/C [5]: 80.6%
viability, T/C [6]: 77.7%
viability, T/C [7]: 62.5%
viability, T/C [8]: 52.4%
viability, T/C [9]: 54.4%
viability, T/C [10]: 51.4%
viability, T/C [11]: 61.5%
viability, T/C [12]: 58.8%
viability, T/C [13]: 22.1%
viability, T/C [14]: 24.6%
viability, T/C [15]: 24.9%
viability, T/C [16]: 29.5%
viability, T/C [17]: 27.3%
viability, T/C [18]: 22.5%
viability, T/C [19]: 27.8%
viability, T/C [20]: 35.9%
viability, T/C [21]: 29.4%
viability, T/C [22]: 20.9%
viability, T/C [23]: 32%
viability, T/C [24]: 29.5%
viability, T/C [25]: 23.5%
viability, T/C [26]: 29.2%
viability, T/C [27]: 26.2%
viability, T/C [28]: 29.4%
viability, T/C [29]: 32.7%
viability, T/C [30]: 29.4%
viability, T/C [31]: 0.13%
viability, T/C [32]: 0.18%
viability, T/C [33]: 0.34%
viability, T/C [34]: 0.18%
viability, T/C [35]: 1.03%
viability, T/C [36]: 0.25%
